In patent US8937072B2, “Substituted cyanoaniline compounds, preparation and use thereof” (Sinochem Corporation, priority 2011, dated 2015):
Read-outs that look alike come from different tables or passages of the source.

Columns and labels:
plasmopora viticola = details: at high dose; cited from earlier work
rice blast = experiment: microbe, parasite or virus in culture; format: cell-based; details: Pyricularia oryzae; for inhibition at 25 µg/mL: read-out: inhibition rate against rice blast; for inhibition at 0.03 µg/mL: read-out: the inhibition rate against rice blast (%) 0.03 mg/L; for inhibition at 0.1 µg/mL: read-out: the inhibition rate against rice blast (%) 0.1 mg/L; for inhibition at 0.3 µg/mL: read-out: the inhibition rate against rice blast (%) 0.3 mg/L
cucumber downy mildew = experiment: Protectant activity in vivo (whole plant) against cucumber downy mildew; details: Cucumis sativus, 168 h; for pest or weed control at 12.5 µg/mL: 12.5 mg/L; for pest or weed control at 400 µg/mL: dose 400 mg/L
In short: (§1)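 Whole plants sprayed with test solution, water plus 0.1% Tween-80 and no more than 5% solvent, then inoculated with the pathogen after 24 h. Plants held in humidity chamber or directly in greenhouse depending on fungus. Disease control scored by eye at about 7 days.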

wheat powdery mildew = experiment: Protectant activity in vivo (whole plant) against wheat powdery mildew; details: Triticum aestivum, 168 h; dose 400 mg/L
Experimental: The method is as followed: The whole plant is used in this test. The compound is dissolved in a proper solvent to get mother solution. The proper solvent is selected from acetone, methanol, DMF and so on according to their dissolving capability to the sample. The volume rate of solvent and testing solution (v/v) is equal to or less than 5%. The mother solution is diluted with water containing 0.1% tween-80 to get the testing solution whose concentration is designed. The testing solution is sprayed to the host plant by a special plant sprayer. The plant is inoculated with fungus after 24 hours. According to the infecting characteristic of fungus, the plant is stored in a humidity chamber and then transferred into greenhouse after infection is finished. And the other plants are placed in greenhouse directly. The activity of compound is obtained by eyeballing after 7 days in common.

cucumber gray mold = experiment: Activity in vitro (96-well, High Through Put): inhibition rate against cucumber gray mold; format: cell-based; details: for inhibition at 0.3 µg/mL: 0.3 mg/L; for inhibition at 0.9 µg/mL: 0.9 mg/L
In short: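 Scored visually at 24 hours relative to control, the readout is pathogen germination or growth. Test solutions used acetone, methanol or DMF as solvent and were mixed with pathogen suspension in a sterile high-throughput format at constant temperature.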

corn rust = experiment: Protectant activity in vivo (whole plant) against corn rust; details: Zea mays, 168 h; for pest or weed control at 6.25 µg/mL: 6.25 mg/L; for pest or weed control at 25 µg/mL: 25 mg/L; for pest or weed control at 100 µg/mL: 100 mg/L
In short: as §1

canker of citrus fruit = details: at 500 ppm; cited from earlier work
blast of rice = details: at 500 ppm; cited from earlier work
pear scab = details: in vivo; cited from earlier work
[1] = 25 mg/L, read-out: the protectant activity (%) against cucumber downy mildew
[2] = 50 mg/L, read-out: the protectant activity (%) against cucumber downy mildew
[3] = 100 mg/L, read-out: the protectant activity (%) against cucumber downy mildew
[4] = read-out: the inhibition rate against cucumber gray mold (%)
[5] = 2.8 mg/L, read-out: the inhibition rate against cucumber gray mold (%)
[6] = 8.3 mg/L, read-out: the inhibition rate against cucumber gray mold (%)
[7] = 400 mg/L, read-out: the protectant activity (%) against corn rust
[8] = dose 400 mg/L, read-out: protectant activity against corn rust in vivo
[9] = dose 100 mg/L, read-out: protectant activity against cucumber downy mildew in vivo
[10] = in vitro, dose 8.3 mg/L, read-out: inhibition rate against cucumber gray mold

SMILES	inhibition at 25 µg/mL (rice blast)	inhibition at 0.03 µg/mL (rice blast)	inhibition at 0.1 µg/mL (rice blast)	inhibition at 0.3 µg/mL (rice blast)	pest or weed control at 12.5 µg/mL (cucumber downy mildew)	pest or weed control at 25 µg/mL (cucumber downy mildew; [1])	pest or weed control at 50 µg/mL (cucumber downy mildew; [2])	pest or weed control at 100 µg/mL (cucumber downy mildew; [3])	pest or weed control at 400 µg/mL (wheat powdery mildew)	inhibition at 0.3 µg/mL (cucumber gray mold)	inhibition at 0.9 µg/mL (cucumber gray mold; [4])	inhibition at 2.8 µg/mL (cucumber gray mold; [5])	inhibition at 8.3 µg/mL (cucumber gray mold; [6])	pest or weed control at 6.25 µg/mL (corn rust)	pest or weed control at 25 µg/mL (corn rust)	pest or weed control at 100 µg/mL (corn rust)	pest or weed control at 400 µg/mL (corn rust; [7])	pest or weed control at 400 µg/mL (corn rust; [8])	bacteriostatic diameter against canker of citrus fruit (canker of citrus fruit)	bacteriostatic diameter against blast of rice (blast of rice)	also measured
N#Cc1c(Cl)c(Cl)c(Nc2ccccc2)c(C#N)c1Cl [KC1]	0%	0%	0%	0%	0%	0%	0%	0%	0%	0%	0%	0%	0%	0%	0%	0%	0%	0%	–	–	activity on relevant diseases such as plasmopora viticola (plasmopora viticola): some activity; pest or weed control at 400 µg/mL (cucumber downy mildew): 0%; inhibition at 25 µg/mL (cucumber gray mold; in vitro, dose 25 mg/L): 0%
N#Cc1c(F)c(F)c(Nc2ccccc2)c(C#N)c1F [KC7]	–	0%	0%	0%	0%	0%	10%	20%	0%	0%	0%	0%	0%	–	–	–	–	–	13.8 mm	22.5 mm	pest or weed control at 25 µg/mL (cucumber downy mildew; dose 25 mg/L, read-out: protectant activity against cucumber downy mildew in vivo): 0%; pest or weed control at 50 µg/mL (cucumber downy mildew; dose 50 mg/L, read-out: protectant activity against cucumber downy mildew in vivo): 10%; pest or weed control at 100 µg/mL (cucumber downy mildew; [9]): 20%; inhibition at 8.3 µg/mL (cucumber gray mold; [10]): 0%; control against pear scab (pear scab): 100%
N#Cc1c(F)c(F)c(Nc2ccc(Cl)cc2)c(C#N)c1F [KC8]	–	0%	0%	0%	0%	0%	0%	0%	0%	0%	0%	0%	0%	0%	0%	0%	0%	0%	0 mm	10.2 mm	pest or weed control at 400 µg/mL (cucumber downy mildew): 0%; inhibition at 8.3 µg/mL (cucumber gray mold; [10]): 0%; control against pear scab (pear scab): 90%
N#Cc1c(F)c(F)c(Nc2ccc(Cl)c(Cl)c2)c(C#N)c1F [KC12]	0%	0%	0%	0%	0%	0%	0%	0%	0%	0%	0%	0%	80%	0%	0%	0%	0%	0%	0 mm	15.5 mm	pest or weed control at 100 µg/mL (cucumber downy mildew; [9]): 20%; inhibition at 2.8 µg/mL (cucumber gray mold; in vitro, dose 2.8 mg/L, read-out: inhibition rate against cucumber gray mold): 0%
